# Results: patent US20260265208A1, “TETRALINE, PHENYLCYCLOBUTANE AND PHENYLCYCLOPENTANE ANALOGS AS RXFP1 AGONISTS” (BRISTOL-MYERS SQUIBB COMPANY, priority 2021, published 2026)
# Target: T1, human RXFP1 (Homo sapiens, UniProt Q9HBX9)
# T1 construct: expressed in transfected cells
# T1 sequence (Q9HBX9 1-757): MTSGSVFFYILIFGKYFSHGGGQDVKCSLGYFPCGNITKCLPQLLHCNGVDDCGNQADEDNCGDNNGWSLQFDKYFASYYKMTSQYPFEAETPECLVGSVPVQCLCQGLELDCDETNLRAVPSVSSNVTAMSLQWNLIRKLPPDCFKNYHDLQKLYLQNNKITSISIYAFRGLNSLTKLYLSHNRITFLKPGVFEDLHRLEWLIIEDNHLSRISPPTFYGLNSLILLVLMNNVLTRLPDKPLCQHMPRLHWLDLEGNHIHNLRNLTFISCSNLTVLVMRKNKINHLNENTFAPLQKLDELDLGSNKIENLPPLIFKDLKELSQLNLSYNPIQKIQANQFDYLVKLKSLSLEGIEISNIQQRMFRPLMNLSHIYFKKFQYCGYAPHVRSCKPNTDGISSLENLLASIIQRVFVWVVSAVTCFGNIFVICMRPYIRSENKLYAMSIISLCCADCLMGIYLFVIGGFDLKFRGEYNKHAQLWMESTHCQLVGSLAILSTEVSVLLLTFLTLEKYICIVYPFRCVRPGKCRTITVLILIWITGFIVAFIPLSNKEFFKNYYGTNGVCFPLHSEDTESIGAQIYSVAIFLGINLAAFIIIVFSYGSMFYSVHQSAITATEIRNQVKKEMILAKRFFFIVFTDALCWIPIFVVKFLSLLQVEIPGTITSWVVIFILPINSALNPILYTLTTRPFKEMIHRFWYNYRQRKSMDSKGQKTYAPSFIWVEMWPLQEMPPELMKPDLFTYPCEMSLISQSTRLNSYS
# Assay: hRXFP1 HEK293 cAMP assay (HTRF)
# Type: cell-based
# Settings: HEK293 cells stably expressing human RXFP1; phenylcyclohexyl (tetraline) examples
# Method: RXFP1 Cyclic Adenosine Monophosphate (cAMP) Assays. Human embryonic kidney cells 293 (HEK293) cells and HEK293 cells stably expressing human RXFP1, were cultured in MEM medium supplemented with 10% qualified FBS, and 300 μg/ml hygromycin (Life Technologies). Cells were dissociated and suspended in assay buffer. The assay buffer was HBSS buffer (with calcium and magnesium) containing 20 mM HEPES, 0.05% BSA, and 0.5 mM IBMX. Cells (3000 cells per well, except 1500 cell per well for HEK293 cells stably expressing human RXFP1) were added to 384-well Proxiplates (Perkin-Elmer). Cells were immediately treated with test compounds in DMSO (2% final) at final concentrations in the range of 0.010 nM to 50 μM. Cells were incubated for 30 min at room temperature. The level of intracellular cAMP was determined using the HTRF HiRange cAMP assay reagent kit (Cisbio) according to manufacturer's instructions. Solutions of cryptate conjugated anti-cAMP and d2 fluorophore-labelled cAMP were made in a supplied lysis buffer separately. Upon completion of the reaction, the cells were lysed with equal volume of the d2-cAMP solution and anti-cAMP solution. After a 1 h room temperature incubation, time-resolved fluorescence intensity was measured using the Envision (Perkin-Elmer) at 400 nm excitation and dual emission at 590 nm and 665 nm. A calibration curve was constructed with an external cAMP standard at concentrations ranging from 2.7 μM to 0.1 μM by plotting the fluorescent intensity ratio from 665 nm emission to the intensity from the 590 nm emission against cAMP concentrations. The potency and activity of a compound to […] cAMP production was then determined by fitting to a 4-parametric logistic equation from a plot of cAMP level versus compound concentrations.
# The examples disclosed below were tested in the human RXFP1 (hRXFP1) HEK293 cAMP assay described above and found to have agonist activity. Tables 1-3, lists EC50 values in the hRXFP1 HEK293 cAMP assay measured for the examples.
row,EC50,SMILES
1,3700 nM,"COc1ccc(C2=NOC3CNCC23)cc1C(=O)Nc1cc2c(cc1C(=O)Nc1ccc(F)c(C(F)(F)F)c1)CCCC2 (mixture of isomers) [Example 15, N-(4-fluoro-3-(trifluoromethyl)phenyl)-3-(2-methoxy-5-(3a,5,6,6a-tetrahydro-4H-pyrrolo[3,4-d]isoxazol-3-yl)benzamido)-5,6,7,8-tetrahydronaphthalene-2-carboxamide]"
2,1.8 nM,"COc1ccc(-c2cc(C(NC(=O)C3CCOCC3)C(=O)O)ccc2F)cc1C(=O)Nc1cc2c(cc1C(=O)Nc1ccc(F)c(C(F)(F)F)c1)CCCC2 (single isomer, unassigned) [Example 2, 2-(6-fluoro-3′-((3-((4-fluoro-3-(trifluoromethyl)phenyl)carbamoyl)-5,6,7,8-tetrahydro-naphthalen-2-yl)carbamoyl)-4′-methoxy-[1,1′-biphenyl]-3-yl)-2-(tetrahydro-2H-pyran-4-carboxamido)acetic acid]"
3,2300 nM,"COc1ccc(-c2cc(C(N)C(=O)O)ccc2F)cc1C(=O)Nc1cc2c(cc1C(=O)Nc1ccc(F)c(C(F)(F)F)c1)CCCC2 (single isomer, unassigned) [Example 3, 2-amino-2-(6-fluoro-3′-((3-((4-fluoro-3-(trifluoromethyl)phenyl)carbamoyl)-5,6,7,8-tetrahydronaphthalen-2-yl)carbamoyl)-4′-methoxy-[1,1′-biphenyl]-3-yl)acetic acid]"
4,19 nM,"COc1ccc(C2=NOC3CC(CO)CC23)cc1C(=O)Nc1cc2c(cc1C(=O)Nc1ccc(F)c(C(F)(F)F)c1)CCCC2 (single isomer, unassigned) [Example 13, N-(4-fluoro-3-(trifluoromethyl)phenyl)-3-(5-(5-(hydroxymethyl)-3a,5,6,6a-tetrahydro-4H-cyclopenta[d]-isoxazol-3-yl)-2-methoxybenzamido)-5,6,7,8-tetrahydronaphthalene-2-carboxamide]"
5,82 nM,"COc1ccc(C2=NOC3CC(CO)CC23)cc1C(=O)Nc1cc2c(cc1C(=O)Nc1ccc(F)c(C(F)(F)F)c1)CCCC2 (single isomer, unassigned) [Example 14, N-(4-fluoro-3-(trifluoromethyl)phenyl)-3-(5-(5-(hydroxymethyl)-3a,5,6,6a-tetrahydro-4H-cyclopenta[d]-isoxazol-3-yl)-2-methoxybenzamido)-5,6,7,8-tetrahydronaphthalene-2-carboxamide]"
6,390 nM,"COc1ccc(-c2cc(C(=O)O)ccc2F)cc1C(=O)Nc1cc2c(cc1C(=O)Nc1ccc(F)c(C(F)(F)F)c1)CCCC2 [Example 1, 6-fluoro-3′-((3-((4-fluoro-3-(trifluoromethyl)phenyl)carbamoyl)-5,6,7,8-tetrahydronaphthalen-2-yl)carbamoyl)-4′-methoxy-[1,1′-biphenyl]-3-carboxylic acid]"
7,860 nM,"COc1ccc(-c2cc([C@H](O)C(F)(F)F)ccc2F)cc1C(=O)Nc1cc2c(cc1C(=O)Nc1ccc(F)c(C(F)(F)F)c1)CCCC2 [Example 4, (S)—N-(4-fluoro-3-(trifluoromethyl)phenyl)-3-(2′-fluoro-4-methoxy-5′-(2,2,2-trifluoro-1-hydroxyethyl)-[1,1′-biphenyl]-3-carboxamido)-5,6,7,8-tetrahydronaphthalene-2-carboxamide]"
8,33 nM,"COc1ccc(-c2cc([C@H](OC(=O)Nc3ccccc3)C(F)(F)F)ccc2F)cc1C(=O)Nc1cc2c(cc1C(=O)Nc1ccc(F)c(C(F)(F)F)c1)CCCC2 [Example 5, (S)-2,2,2-trifluoro-1-(6-fluoro-3′-((3-((4-fluoro-3-(trifluoromethyl)phenyl)carbamoyl)-5,6,7,8-tetrahydronaphthalen-2-yl)carbamoyl)-4′-methoxy-[1,1′-biphenyl]-3-yl)ethyl phenylcarbamate]"
9,15 nM,"COc1ccc(-c2cc([C@H](OC(=O)NC3CCC3)C(F)(F)F)ccc2F)cc1C(=O)Nc1cc2c(cc1C(=O)Nc1ccc(F)c(C(F)(F)F)c1)CCCC2 [Example 6, (S)-2,2,2-trifluoro-1-(6-fluoro-3′-((3-((4-fluoro-3-(trifluoromethyl)phenyl)carbamoyl)-5,6,7,8-tetrahydronaphthalen-2-yl)carbamoyl)-4′-methoxy-[1,1′-biphenyl]-3-yl)ethyl cyclobutylcarbamate]"
10,62 nM,"COc1ccc(-c2cc([C@H](OC(=O)NC3CC(F)(F)C3)C(F)(F)F)ccc2F)cc1C(=O)Nc1cc2c(cc1C(=O)Nc1ccc(F)c(C(F)(F)F)c1)CCCC2 [Example 7, (S)-2,2,2-trifluoro-1-(6-fluoro-3′-((3-((4-fluoro-3-(trifluoro-methyl)phenyl)carbamoyl)-5,6,7,8-tetra-hydronaphthalen-2-yl)carbamoyl)-4′-methoxy-[1,1′-biphenyl]-3-yl)ethyl (3,3-difluorocyclo-butyl)carbamate]"
11,4200 nM,"COc1ccc(-c2cc(C(=O)NCC3CCC3)ccc2F)cc1C(=O)Nc1cc2c(cc1C(=O)Nc1ccc(F)c(C(F)(F)F)c1)CCCC2 [Example 8, N3′-(cyclobutyl-methyl)-6′-fluoro-N3-(3-((4-fluoro-3-(trifluoromethyl)phenyl)carbamoyl)-5,6,7,8-tetrahydro-naphthalen-2-yl)-4-methoxy-[1,1′-biphenyl]-3,3′-dicarboxamide]"
12,22 nM,"COc1ccc(-c2cc(CC(=O)NCC3CCC3)ccc2F)cc1C(=O)Nc1cc2c(cc1C(=O)Nc1ccc(F)c(C(F)(F)F)c1)CCCC2 [Example 9, 3-(5′-(2-((cyclobutylmethyl)amino)-2-oxoethyl)-2′-fluoro-4-methoxy-[1,1′-biphenyl]-3-carboxamido)-N-(4-fluoro-3-(trifluoromethyl)phenyl)-5,6,7,8-tetrahydronaphthalene-2-carboxamide]"
13,290 nM,"COc1ccc(C2=NOC3CC(CO)CC23)cc1C(=O)Nc1cc2c(cc1C(=O)Nc1ccc(F)c(C(F)(F)F)c1)CCCC2 (stereo not shown) [Example 12, N-(4-fluoro-3-(trifluoromethyl)phenyl)-3-(5-(5-(hydroxymethyl)-3a,5,6,6a-tetrahydro-4H-cyclopenta[d]-isoxazol-3-yl)-2-methoxybenzamido)-5,6,7,8-tetrahydronaphthalene-2-carboxamide]"

# Same assay, conditions: HEK293 cells stably expressing human RXFP1; phenylcyclopentyl examples
row,EC50,SMILES
1,2700 nM,"COc1ccc(-c2cc(C(=O)O)ccc2F)cc1C(=O)Nc1cc2c(cc1C(=O)Nc1ccc(F)c(C(F)(F)F)c1)CCC2O (racemic) [Example 29, 6-fluoro-3′-((6-((4-fluoro-3-(trifluoromethyl)phenyl)carbamoyl)-3-hydroxy-2,3-dihydro-1H-inden-5-yl)carbamoyl)-4′-methoxy-[1,1′-biphenyl]-3-carboxylic acid]"
2,34 nM,"COc1ccc(C2=NOC3CC(CO)CC23)cc1C(=O)Nc1cc2c(cc1C(=O)Nc1ccc(F)c(C(F)(F)F)c1)CCC2=O (single isomer, unassigned) [Example 27, N-(4-fluoro-3-(trifluoromethyl)phenyl)-6-(5-(5-(hydroxymethyl)-3a,5,6,6a-tetrahydro-4H-cyclopenta[d]isoxazol-3-yl)-2-methoxybenzamido)-1-oxo-2,3-dihydro-1H-indene-5-carboxamide]"
3,160 nM,"COc1ccc(C2=NOC3CC(CO)CC23)cc1C(=O)Nc1cc2c(cc1C(=O)Nc1ccc(F)c(C(F)(F)F)c1)CCC2=O (single isomer, unassigned) [Example 28, N-(4-fluoro-3-(trifluoromethyl)phenyl)-6-(5-(5-(hydroxymethyl)-3a,5,6,6a-tetrahydro-4H-cyclopenta[d]isoxazol-3-yl)-2-methoxybenzamido)-1-oxo-2,3-dihydro-1H-indene-5-carboxamide]"
